Reference: PubChem BioAssay (NCI)
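96-well plates; 48 h exposure; 5 concentrations. Endpoints by linear interpolation between flanking doses. Not reached: highest tested concentration assigned. The concentration for 50% growth inhibition is given as GI50. The concentration for full growth arrest is given as TGI.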

Key:
Experiment in all cases: inhibition of tumour cell growth, NCI panel, 48 h
SF-539 CNS = tested on: SF-539 CNS
M14 melanoma = tested on: M14 melanoma
KM12 colon = tested on: KM12 colon
SW-620 colon = tested on: SW-620 colon
SNB-75 CNS = tested on: SNB-75 CNS
TK-10 renal = tested on: TK-10 renal
COLO 205 colon = tested on: COLO 205 colon
HS 578T breast = tested on: HS 578T breast
LOX IMVI melanoma = tested on: LOX IMVI melanoma
MDA-MB-231 breast = tested on: MDA-MB-231 breast
786-0 renal = tested on: 786-0 renal
MOLT-4 leukemia = tested on: MOLT-4 leukemia
HCT-116 colon = tested on: HCT-116 colon
NCI-H460 lung = tested on: NCI-H460 lung
PC-3 prostate = tested on: PC-3 prostate
A498 renal = tested on: A498 renal
HL-60(TB) leukemia = tested on: HL-60(TB) leukemia
SK-MEL-2 melanoma = tested on: SK-MEL-2 melanoma
OVCAR-5 ovarian = tested on: OVCAR-5 ovarian
SNB-19 CNS = tested on: SNB-19 CNS
OVCAR-4 ovarian = tested on: OVCAR-4 ovarian
UACC-257 melanoma = tested on: UACC-257 melanoma
OVCAR-8 ovarian = tested on: OVCAR-8 ovarian
MDA-MB-435 = tested on: MDA-MB-435
SN12C renal = tested on: SN12C renal
HOP-92 NSCLC = tested on: HOP-92 NSCLC
HOP-62 NSCLC = tested on: HOP-62 NSCLC
HCT-15 colon = tested on: HCT-15 colon
CCRF-CEM leukemia = tested on: CCRF-CEM leukemia
UO-31 renal = tested on: UO-31 renal
K-562 leukemia = tested on: K-562 leukemia
SF-295 CNS = tested on: SF-295 CNS
MALME-3M melanoma = tested on: MALME-3M melanoma
UACC-62 melanoma = tested on: UACC-62 melanoma
NCI-H226 lung = tested on: NCI-H226 lung
RPMI-8226 leukemia = tested on: RPMI-8226 leukemia
OVCAR-3 ovarian = tested on: OVCAR-3 ovarian
IGROV1 ovarian = tested on: IGROV1 ovarian
SK-OV-3 ovarian = tested on: SK-OV-3 ovarian
A549 NSCLC = tested on: A549 NSCLC
SF-268 CNS = tested on: SF-268 CNS
DU-145 prostate = tested on: DU-145 prostate
HCC-2998 colon = tested on: HCC-2998 colon
U251 CNS = tested on: U251 CNS
SR leukemia = tested on: SR leukemia
NCI/ADR-RES ovarian = tested on: NCI/ADR-RES ovarian
HT29 colon = tested on: HT29 colon
MCF7 breast = tested on: MCF7 breast
NCI-H23 lung = tested on: NCI-H23 lung
NCI-H522 lung = tested on: NCI-H522 lung
EKVX NSCLC = tested on: EKVX NSCLC
SK-MEL-5 melanoma = tested on: SK-MEL-5 melanoma
BT-549 breast = tested on: BT-549 breast

## CCCC[C@H](NC(=O)[C@H]1CCCCN1C)C(=O)N(C)[C@H](C[C@@H](OC(C)=O)c1nc(C(=O)N[C@@H](Cc2ccccc2)C[C@H](C)C(=O)OCC)cs1)C(C)C
SF-539 CNS
  GI50: 0.00346 µM
  TGI: 0.024 µM
M14 melanoma
  GI50: < 0.00333 µM
  TGI: 3.62 µM
KM12 colon
  GI50: < 0.00333 µM
  TGI: > 33.3 µM
SW-620 colon
  GI50: < 0.00333 µM
  TGI: > 33.3 µM
SNB-75 CNS
  GI50: < 0.00333 µM
  TGI: 10.8 µM
TK-10 renal
  GI50: 7.86 µM
  TGI: > 33.3 µM
COLO 205 colon
  GI50: < 0.00333 µM
  TGI: 0.00712 µM
HS 578T breast
  GI50: < 0.00333 µM
  TGI: 8.49 µM
LOX IMVI melanoma
  GI50: < 0.00333 µM
  TGI: 5.64 µM
MDA-MB-231 breast
  GI50: < 0.00333 µM
  TGI: 0.341 µM
786-0 renal
  GI50: < 0.00333 µM
  TGI: 6.27 µM
MOLT-4 leukemia
  GI50: 0.00382 µM
  TGI: 20.5 µM
HCT-116 colon
  GI50: < 0.00333 µM
  TGI: > 33.3 µM
NCI-H460 lung
  GI50: < 0.00333 µM
  TGI: 5.65 µM
PC-3 prostate
  GI50: < 0.00333 µM
  TGI: > 33.3 µM
A498 renal
  GI50: < 0.00333 µM
  TGI: 0.00869 µM
HL-60(TB) leukemia
  GI50: < 0.00333 µM
  TGI: 0.00341 µM
SK-MEL-2 melanoma
  GI50: < 0.00333 µM
  TGI: 13.7 µM
OVCAR-5 ovarian
  GI50: 0.00833 µM
  TGI: 21.6 µM
SNB-19 CNS
  GI50: < 0.00333 µM
  TGI: > 33.3 µM
OVCAR-4 ovarian
  GI50: 0.476 µM
  TGI: > 33.3 µM
UACC-257 melanoma
  GI50: 3.56 µM
  TGI: 10.6 µM
OVCAR-8 ovarian
  GI50: 0.00528 µM
  TGI: > 33.3 µM
MDA-MB-435
  GI50: < 0.00333 µM
  TGI: < 0.00333 µM
SN12C renal
  GI50: 0.00583 µM
  TGI: 6.55 µM
HOP-92 NSCLC
  GI50: 1.23 µM
  TGI: 27.3 µM
HOP-62 NSCLC
  GI50: < 0.00333 µM
  TGI: 8.61 µM
HCT-15 colon
  GI50: 0.00521 µM
  TGI: 5.73 µM
CCRF-CEM leukemia
  GI50: < 0.00333 µM
  TGI: 6.21 µM
UO-31 renal
  GI50: 0.0188 µM
  TGI: 11.9 µM
K-562 leukemia
  GI50: < 0.00333 µM
  TGI: 11.1 µM
SF-295 CNS
  GI50: < 0.00333 µM
  TGI: 4.34 µM
MALME-3M melanoma
  GI50: 1.08 µM
  TGI: 7.1 µM
UACC-62 melanoma
  GI50: < 0.00333 µM
  TGI: 24.1 µM
NCI-H226 lung
  GI50: 0.0857 µM
  TGI: 19.1 µM
RPMI-8226 leukemia
  GI50: < 0.00333 µM
  TGI: 4.85 µM
OVCAR-3 ovarian
  GI50: < 0.00333 µM
  TGI: 12.2 µM
IGROV1 ovarian
  GI50: 0.00343 µM
  TGI: > 33.3 µM
SK-OV-3 ovarian
  GI50: < 0.00333 µM
  TGI: 13 µM
A549 NSCLC
  GI50: 0.00444 µM
  TGI: > 33.3 µM
SF-268 CNS
  GI50: < 0.00333 µM
  TGI: 12.1 µM
DU-145 prostate
  GI50: < 0.00333 µM
  TGI: > 33.3 µM
HCC-2998 colon
  GI50: < 0.00333 µM
  TGI: 8.39 µM
U251 CNS
  GI50: < 0.00333 µM
  TGI: 8.58 µM
SR leukemia
  GI50: < 0.00333 µM
  TGI: 6.79 µM
NCI/ADR-RES ovarian
  GI50: 0.0828 µM
  TGI: > 33.3 µM
HT29 colon
  GI50: < 0.00333 µM
  TGI: 3.6 µM
MCF7 breast
  GI50: < 0.00333 µM
  TGI: > 33.3 µM
NCI-H23 lung
  GI50: 0.00641 µM
  TGI: > 33.3 µM
NCI-H522 lung
  GI50: < 0.00333 µM
  TGI: 0.775 µM
EKVX NSCLC
  GI50: 0.00739 µM
  TGI: > 33.3 µM
SK-MEL-5 melanoma
  GI50: < 0.00333 µM
  TGI: 0.0473 µM
BT-549 breast
  GI50: < 0.00333 µM
  TGI: 0.133 µM
